Laboratory results reported in patent US12371454B2, “Cyclic peptide compound having Kras inhibitory action” (priority 2019, dated 2025).
Starred links: 1 amine or outer side, 2 acyl side, 3 side chain; linkers in the order of their positions; H or OH if unused. Positions of bridges follow the written chain, without caps; N, C: chain ends. Non-standard residues stand in square brackets, D forms with d. Residues, ends and D or L forms follow the SMILES beside them. *: point of attachment. hPhe(3,5-F2-4-CF3) = N[C@@H](CCc1cc(F)c(C(F)(F)F)c(F)c1)C(=O)O; hPhe(3-Cl-4-CF3) = N[C@@H](CCc1ccc(C(F)(F)F)c(Cl)c1)C(=O)O; X15 = COc1cc(CC[C@H](N[*:1])C(=O)[*:2])cc(Cl)c1Cl; 3Oxa8azabicyclo(3.2.1)octane = C1CC2COCC1N2*; NMeAbu(4,4,4-F3) = CN[C@@H](CC(F)(F)F)C(=O)O; NMePhe(4-Me) = CN[C@@H](Cc1ccc(C)cc1)C(=O)O; NMeAla(cPent) = CN[C@@H](CC1CCCC1)C(=O)O; NMeGly(cPent) = CN[C@H](C(=O)O)C1CCCC1; NMeGly(cBu) = CN[C@H](C(=O)O)C1CCC1; NMeY = CN[C@@H](Cc1ccc(O)cc1)C(=O)O; Gly(cPent) = N[C@H](C(=O)O)C1CCCC1; NMeCha = CN[C@@H](CC1CCCCC1)C(=O)O; NMeChg = CN[C@H](C(=O)O)C1CCCCC1; X7 = O=C(CN(c1ccsc1)[*:1])[*:2]; NMeD = CN[C@@H](CC(=O)O)C(=O)O; NMeL = CN[C@@H](CC(C)C)C(=O)O; NMeNva = CCC[C@H](NC)C(=O)O; NMeV = CN[C@H](C(=O)O)C(C)C; d(β3hA) = C[C@@H](N)CC(=O)O; NMeS = CN[C@@H](CO)C(=O)O; Morpholide = C1CN(*)CCO1; NMeA = CN[C@@H](C)C(=O)O; Piperidide = C1CCN(*)CC1; Pyrrolidide = C1CCN(*)C1; Ac5c = NC1(C(=O)O)CCCC1; Aze = O=C(O)[C@@H]1CCN1; Ac4c = NC1(C(=O)O)CCC1; Aib = CC(C)(N)C(=O)O; Cyclopropyl = C1CC1*; Sar = CNCC(=O)O; Propyl = CCC*

Tests used:
[1] = tested on: Human pancreatic cancer cell line AsPC-1; test: Measurement of AsPC-1 cell growth inhibition (AsPC-1 CGI); assay type: cell-based; conditions: 96 h
How it was run: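 AsPC-1 cells in 15% FBS RPMI-1640 were exposed to test compound for 96 hours at 37° C, with CellTiter-Glo as endpoint.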

[2] = molecular target: T1, Kras and SOS1 (biotin-tagged human Kras loaded with GDP, His-tagged human SOS1) (Homo sapiens, UniProt P01116, G12D); test: Protein-protein interaction inhibition between Kras and SOS1 (KrasGl2D-SOS PPI) using AlphaScreen; assay type: binding; conditions: AlphaScreen; biotin-tagged human Kras loaded with GDP, His-tagged human SOS1; read-out: KRAS G12D-SOS PPI IC50
T1 construct: made in house; host or cells: E. coli (stated for Kras only)
T1 sequence (P01116 1-188 isoform P01116-2 G12D): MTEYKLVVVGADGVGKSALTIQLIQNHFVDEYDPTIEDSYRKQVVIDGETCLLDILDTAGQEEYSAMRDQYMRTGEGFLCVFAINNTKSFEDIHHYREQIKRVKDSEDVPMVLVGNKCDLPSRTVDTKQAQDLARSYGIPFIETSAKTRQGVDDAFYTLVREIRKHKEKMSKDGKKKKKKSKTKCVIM
How it was run: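 Binding between SOS1 and Kras is detected as bead-proximity luminescence: illuminate Ni-conjugated donors (680 nm), collect 520-620 nm emission from streptavidin-conjugated acceptors; Kras carries biotin and GDP loaded after purification, SOS1 carries a His tag.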

Row | Compound | IC50 [1] [nM] | IC50 [2] [nM]
1 | CCCOC[C@H]1C(=O)N(C)CC(=O)N[C@@H](CCc2ccc(C(F)(F)F)c(Cl)c2)C(=O)N2CCC[C@H]2C(=O)NC2(CCCC2)C(=O)N(C)[C@@H](C2CCCCC2)C(=O)N(C)[C@H](C(=O)N2C3CCC2COC3)CC(=O)N(C)[C@@H](CC(C)C)C(=O)N[C@@H]([C@@H](C)CC)C(=O)N(C)CC(=O)N(C)CC(=O)N1C [Compound 1900] ([NMeL]I[Sar][Sar][NMeS](Propyl)[Sar][hPhe(3-Cl-4-CF3)]P[Ac5c][NMeChg][NMeD]-{3Oxa8azabicyclo(3.2.1)octane}; lactam N-11) | 100 to 500 | 0.99
2 | CC[C@H](C)[C@@H]1NC(=O)[C@H](C)N(C)C(=O)C[C@@H](C(=O)N2CCCCC2)N(C)C(=O)[C@H](C2CCC2)N(C)C(=O)C2(CCCC2)NC(=O)CN(c2ccsc2)C(=O)[C@H](CCc2ccc(C(F)(F)F)c(Cl)c2)NC(=O)CN(C)C(=O)[C@H](CC2CCCCC2)N(C)C(=O)CN(C)C(=O)CN(C)C1=O [Compound 2149] ([NMeA]I[Sar][Sar][NMeCha][Sar][hPhe(3-Cl-4-CF3)][X7][Ac5c][NMeGly(cBu)][NMeD]-Piperidide; lactam N-11) | > 500 | 4
3 | CCCOC[C@H]1C(=O)N(C)CC(=O)N[C@@H](CCc2ccc(C(F)(F)F)c(Cl)c2)C(=O)N2CCC[C@H]2C(=O)NC2(CCCC2)C(=O)N(C)[C@@H](C2CCCCC2)C(=O)N(C)[C@H](C(=O)N2C3CCC2COC3)CC(=O)N(C)[C@@H](C2CCC2)C(=O)N[C@@H]([C@@H](C)CC)C(=O)N(C)CC(=O)N(C)CC(=O)N1C [Compound 140] ([NMeGly(cBu)]I[Sar][Sar][NMeS](Propyl)[Sar][hPhe(3-Cl-4-CF3)]P[Ac5c][NMeChg][NMeD]-{3Oxa8azabicyclo(3.2.1)octane}; lactam N-11) | 100 to 500 | 0.81
4 | CO[C@H](C)[C@@H]1NC(=O)[C@H](CC(C)C)N(C)C(=O)C[C@@H](C(=O)N2CCCCC2)N(C)C(=O)[C@H](C2CCCCC2)N(C)C(=O)C2(CCCC2)NC(=O)[C@@H]2CCCN2C(=O)[C@H](CCc2ccc(C(F)(F)F)c(Cl)c2)NC(=O)CN(C)C(=O)[C@H](CC2CCCCC2)N(C)C(=O)CN(C)C(=O)CN(C)C1=O [Compound 535] ([NMeL]T(Me)[Sar][Sar][NMeCha][Sar][hPhe(3-Cl-4-CF3)]P[Ac5c][NMeChg][NMeD]-Piperidide; lactam N-11) | 50 to 100 | 0.65
5 | CC(C)C[C@@H]1NC(=O)[C@H](CC(C)C)N(C)C(=O)C[C@@H](C(=O)N2CCCCC2)N(C)C(=O)[C@H](C2CCCCC2)N(C)C(=O)C2(CCCC2)NC(=O)[C@@H]2CCCN2C(=O)[C@H](CCc2ccc(C(F)(F)F)c(Cl)c2)NC(=O)CN(C)C(=O)[C@H](CC2CCCCC2)N(C)C(=O)CN(C)C(=O)CN(C)C1=O [Compound 1650] ([NMeL]L[Sar][Sar][NMeCha][Sar][hPhe(3-Cl-4-CF3)]P[Ac5c][NMeChg][NMeD]-Piperidide; lactam N-11) | 100 to 500 | 2.6
6 | CC[C@H](C)[C@@H]1NC(=O)[C@H](C)N(C)C(=O)C[C@@H](C(=O)N2CCCCC2)N(C)C(=O)[C@H](C2CCCCC2)N(C)C(=O)C2(CCCC2)NC(=O)[C@@H]2CCCN2C(=O)[C@H](CCc2cc(Cl)c(Cl)c(OC)c2)NC(=O)CN(C)C(=O)[C@H](CC2CCCCC2)N(C)C(=O)CN(C)C(=O)CN(C)C1=O [Compound 2081] ([NMeA]I[Sar][Sar][NMeCha][Sar][X15]P[Ac5c][NMeChg][NMeD]-Piperidide; lactam N-11) | > 500 | 2
7 | CC[C@H](C)[C@@H]1NC(=O)[C@H](CC(C)C)N(C)C(=O)C[C@@H](C(=O)N2CCCC2)N(C)C(=O)[C@H](C2CCCCC2)N(C)C(=O)C2(CCCC2)NC(=O)[C@@H]2CCCN2C(=O)[C@H](CCc2ccc(C(F)(F)F)c(Cl)c2)NC(=O)CN(C)C(=O)[C@H](CC2CCCC2)N(C)C(=O)CN(C)C(=O)CN(C)C1=O [Compound 1969] ([NMeL]I[Sar][Sar][NMeAla(cPent)][Sar][hPhe(3-Cl-4-CF3)]P[Ac5c][NMeChg][NMeD]-Pyrrolidide; lactam N-11) | 50 to 100 | 0.61
8 | CCC[C@H]1C(=O)N[C@@H]([C@@H](C)CC)C(=O)N(C)CC(=O)N(C)CC(=O)N(C)[C@@H](CC2CCCCC2)C(=O)N(C)CC(=O)N[C@@H](CCc2ccc(C(F)(F)F)c(Cl)c2)C(=O)N2CCC[C@H]2C(=O)NC2(CCCC2)C(=O)N(C)[C@@H](C2CCCCC2)C(=O)N(C)[C@H](C(=O)N2C3CCC2COC3)CC(=O)N1C [Compound 1933] ([NMeNva]I[Sar][Sar][NMeCha][Sar][hPhe(3-Cl-4-CF3)]P[Ac5c][NMeChg][NMeD]-{3Oxa8azabicyclo(3.2.1)octane}; lactam N-11) | 50 to 100 | 0.59
9 | CC[C@H](C)[C@@H]1NC(=O)[C@H](CC(C)C)N(C)C(=O)C[C@@H](C)NC(=O)[C@H](CC(C)C)N(C)C(=O)C(C)(C)NC(=O)[C@H](CC(C)C)N(C)C(=O)[C@H](CCc2cc(F)c(C(F)(F)F)c(F)c2)NC(=O)CN(C)C(=O)[C@H](CC2CCCCC2)N(C)C(=O)CN(C)C(=O)CN(C)C1=O [Compound 119] (cyclo([Aib][NMeL][d(β3hA)][NMeL]I[Sar][Sar][NMeCha][Sar][hPhe(3,5-F2-4-CF3)][NMeL])) | 100 to 500 | 39
10 | CC(C)C[C@H]1C(=O)N[C@@H](COC2CC2)C(=O)N(C)CC(=O)N(C)CC(=O)N(C)[C@@H](CC2CCCCC2)C(=O)N(C)CC(=O)N[C@@H](CCc2ccc(C(F)(F)F)c(Cl)c2)C(=O)N2CCC[C@H]2C(=O)NC2(CCCC2)C(=O)N(C)[C@@H](C2CCCCC2)C(=O)N(C)[C@H](C(=O)N2CCCCC2)CC(=O)N1C [Compound 1766] ([NMeL]S(Cyclopropyl)[Sar][Sar][NMeCha][Sar][hPhe(3-Cl-4-CF3)]P[Ac5c][NMeChg][NMeD]-Piperidide; lactam N-11) | 100 to 500 | 3.6
11 | CC[C@H](C)[C@@H]1NC(=O)[C@H](CC(C)C)N(C)C(=O)C[C@@H](C(=O)N2CCCCC2)N(C)C(=O)[C@H](C2CCCCC2)N(C)C(=O)C2(CCC2)NC(=O)[C@@H]2CCCN2C(=O)[C@H](CCc2ccc(C(F)(F)F)c(Cl)c2)NC(=O)CN(C)C(=O)[C@H](CC2CCCCC2)N(C)C(=O)CN(C)C(=O)CN(C)C1=O [Compound 1821] ([NMeL]I[Sar][Sar][NMeCha][Sar][hPhe(3-Cl-4-CF3)]P[Ac4c][NMeChg][NMeD]-Piperidide; lactam N-11) | 20 to 50 | 0.99
12 | CC(C)C[C@H]1C(=O)N[C@@H](C2CCCC2)C(=O)N(C)CC(=O)N(C)CC(=O)N(C)[C@@H](CC2CCCCC2)C(=O)N(C)CC(=O)N[C@@H](CCc2ccc(C(F)(F)F)c(Cl)c2)C(=O)N2CCC[C@H]2C(=O)NC2(CCCC2)C(=O)N(C)[C@@H](C2CCCCC2)C(=O)N(C)[C@H](C(=O)N2CCCCC2)CC(=O)N1C [Compound 1824] ([NMeL][Gly(cPent)][Sar][Sar][NMeCha][Sar][hPhe(3-Cl-4-CF3)]P[Ac5c][NMeChg][NMeD]-Piperidide; lactam N-11) | 50 to 100 | 0.75
13 | CC[C@H](C)[C@@H]1NC(=O)[C@H](CC(F)(F)F)N(C)C(=O)C[C@@H](C(=O)N2CCOCC2)N(C)C(=O)[C@H](C2CCCCC2)N(C)C(=O)C2(CCCC2)NC(=O)[C@@H]2CCCN2C(=O)[C@H](CCc2ccc(C(F)(F)F)c(Cl)c2)NC(=O)CN(C)C(=O)[C@H](CC2CCCC2)N(C)C(=O)CN(C)C(=O)CN(C)C1=O [Compound 367] ([NMeAbu(4,4,4-F3)]I[Sar][Sar][NMeAla(cPent)][Sar][hPhe(3-Cl-4-CF3)]P[Ac5c][NMeChg][NMeD]-Morpholide; lactam N-11) | 100 to 500 | 0.6
14 | CC[C@H](C)[C@@H]1NC(=O)[C@H](CC(C)C)N(C)C(=O)C[C@@H](C(=O)N2CCCCC2)N(C)C(=O)[C@H](C(C)C)N(C)C(=O)C2(CCCC2)NC(=O)[C@@H]2CCCN2C(=O)[C@H](CCc2ccc(C(F)(F)F)c(Cl)c2)NC(=O)CN(C)C(=O)[C@H](Cc2ccc(OC)cc2)N(C)C(=O)CN(C)C(=O)CN(C)C1=O [Compound 1588] ([NMeL]I[Sar][Sar][NMeY](Me)[Sar][hPhe(3-Cl-4-CF3)]P[Ac5c][NMeV][NMeD]-Piperidide; lactam N-11) | 100 to 500 | 4.1
15 | CC[C@H](C)[C@@H]1NC(=O)[C@H](CC(C)C)N(C)C(=O)C[C@@H](C)NC(=O)[C@H](C(C)C)N(C)C(=O)C2(CCCC2)NC(=O)[C@@H]2CCCN2C(=O)[C@H](CCc2ccc(C(F)(F)F)c(Cl)c2)NC(=O)CN(C)C(=O)[C@H](Cc2ccc(C)cc2)N(C)C(=O)CN(C)C(=O)CN(C)C1=O [Compound 1632] (cyclo([Ac5c][NMeV][d(β3hA)][NMeL]I[Sar][Sar][NMePhe(4-Me)][Sar][hPhe(3-Cl-4-CF3)]P)) | 100 to 500 | 2.9
16 | CC[C@H](C)[C@@H]1NC(=O)[C@H](CC(C)C)N(C)C(=O)C[C@@H](C)NC(=O)[C@H](C2CCCC2)N(C)C(=O)C2(CCCC2)NC(=O)[C@@H]2CCCN2C(=O)[C@H](CCc2ccc(C(F)(F)F)c(Cl)c2)NC(=O)CN(C)C(=O)[C@H](Cc2ccc(C)cc2)N(C)C(=O)[C@@H]2CCN2C(=O)[C@H](C)N(C)C1=O [Compound 1537] (cyclo([Ac5c][NMeGly(cPent)][d(β3hA)][NMeL]I[NMeA][Aze][NMePhe(4-Me)][Sar][hPhe(3-Cl-4-CF3)]P)) | 50 to 100 | 3.9
